Measured values from US12642852B1, “Genomic engineering of pluripotent cells” (Fate Therapeutics, Inc., priority 2015, dated 2026).

Key:
[1] = system: puro-selected 293T cells with CMV-driven iCasp9 (AAVS1-G1.0) at AAVS1 locus; assay: In vitro inducible killing by AP1903, 7AAD staining and flow cytometry, 293T cells; format: cell-based; settings: AP1903 10 nM or 120 nM, 24 hrs, DMSO control, n=2
From the text: (§1) In vitro inducible killing of iCasp9-integrated iPSCs: The chemical inducer of dimerization (CID; AP1903) was purchased from Medchemexpress (Monmouth Junction, NJ). Twenty-four hours after CID exposure, the cells were harvested and stained with 7-amino actinomycin D (7-AAD) according to the manufacturer's instruction (BD Biosciences). The percentage of 7-AAD positive cells were quantified as dead cells by flow cytometry (Guava, EMD Millipore, Billerica, MA) and analyzed with flowjo software.
A donor construct encompassing CMV-driven iCasp9 (AAVS1-G1.0) was designed to target the AAVS1 locus (FIG. 1A) and to integrate the Casp9 suicide gene to 293T cells. The donor construct also comprise GFP and puromycin genes, the expression of which are driven by AAVS1 endogenous promoter once the targeted insertion takes place (FIG. 1A). 293T cells were transfected with ZFNs specific to AAVS1 locus and the donor construct AAVS1-G1.0. Three days after transfection, the puromycin selection was started and continued for 12 days. The puro-selected population was analyzed by flow cytometry for GFP expression, and a range of GFP expression levels were observed. It was observed that about 82% of the puro-selected cell population expressed GFP (FIG. 1B). […] The treated cells were then harvested and stained with 7AAD, which selectively stains membrane-compromised dying cells, and analyzed by flow cytometry. […]

iCasp9-integrated iPSCs = assay: In vitro inducible killing of iCasp9-integrated iPSCs by AP1903, 7AAD/GFP flow cytometry; format: cell-based, human; settings: for cell death mediated by AP1903 (7AAD negative cells percentage): 24 hrs
From the text: as §1
Similar to 293T cells, hiPSCs were transfected with ZFNs specific to AAVS1 locus and a donor construct encompassing CMV-driven iCasp9 (AAVS1-G1.0). The puromycin selection was started 3 days after transfection and continued for 16 days. The puro-resistant cells were analyzed by flow cytometry for GFP expression. Three populations based on the GFP intensity, GFP (neg), GFP (low) and GFP (hi) were sorted by flow cytometry (FIG. 1E). […] The treated cells were harvested and stained with 7AAD and analyzed by flow cytometry. […] However, in contrast to 293T cells with targeted Casp9 insertion at AAVS1 locus, cell death mediated by the AP1903 was not detected in all treatments in iPSCs with targeted Casp9 insertion at AAVS1 locus (FIG. 1F). […]
Because in the previous study puromycin selection under the AAVS1 promoter was robustly expressed to maintain viability and growth during selection, next a donor construct encompassing iCasp9 was designed to target the AAVS1 locus with endogenous AAVS1 promoter driving iCasp9 gene expression upon insertion (and GFP, and puromycin marker genes) (FIG. 2A). hiPSCs were transfected with ZFNs specific to AAVS1 locus and the donor construct encompassing iCasp9 under the control of AAVS1 endogenous promoter. […] The treated cells were harvested and stained with 7AAD and analyzed by flow cytometry. […] However, cell death mediated by the AP1903 was not detected in all treatments in iPSCs with targeted insertion of Casp9 at AAVS1 locus, and controlled Casp9 expression by endogenous AAVS1 promoter (FIG. 2C). […]

[2] = system: CAG-C38 iCasp9 iPSC clone with targeted insertion of sr39TK into H11 locus; assay: Dual suicide gene safe guard system killing in vitro (iCasp9 at AAVS1, sr39TK at H11); format: cell-based, human
From the text: In addition to CAG-iCasp9 integrated into AAVS1 locus, CAG-sr39TK was integrated into H11 safe harbor in CAG-C38 clonal iPSC using targeted insertion method described herein.

| SMILES | cell death (7AAD negative cells percentage) [1] | cell death mediated by AP1903 (7AAD negative cells percentage) (iCasp9-integrated iPSCs; hiPSCs with CMV-driven iCasp9, GFP (neg), GFP (low), GFP (hi) populations, 10 nM or 100 nM) | AP1903 cell death induction of GFP positive cells (iCasp9-integrated iPSCs; hiPSCs with EF1α-driven iCasp9 at AAVS1, puromycin selected 20 days) | cell death mediated by AP1903 (7AAD negative cells percentage) (iCasp9-integrated iPSCs; iPSCs with iCasp9 under endogenous AAVS1 promoter) | inducible killing ([2]; 10 nM AP1903 alone for two days) | inducible killing ([2]; 25 μg/mL GCV alone for nine days) |
| --- | --- | --- | --- | --- | --- | --- |
| CC[C@H](C(=O)N1CCCC[C@H]1C(=O)O[C@H](CCc1ccc(OC)c(OC)c1)c1cccc(OCC(=O)NCCNC(=O)COc2cccc([C@@H](CCc3ccc(OC)c(OC)c3)OC(=O)[C@@H]3CCCCN3C(=O)[C@@H](CC)c3cc(OC)c(OC)c(OC)c3)c2)c1)c1cc(OC)c(OC)c(OC)c1 [AP1903] | Significant cell death was detected | not detected | although few, were responsive | not detected | inducible killing of most cells but rare cells remained | – |
| Nc1nc(O)c2ncn(COC(CO)CO)c2n1 [GCV, Ganciclovir] | – | – | – | – | – | expanded GCV-refractory cells |
